According to PubChem BioAssay AID1996:
Converted amounts (≈) assume the structure as drawn.

Settings: buffer; pH 7.4; 200.0 µM

Row | Compound | solubility kinetic
1 | Nc1ccccc1-c1nc2ccccc2[nH]c1=O | 0.0338 mg/mL (≈ 142 µM)
2 | COc1ccc(CCNc2nc(C)cc(C)n2)cc1OC.Cl | > 0.0486 mg/mL
3 | O=C(O)CC1(CC(=O)Nc2cc3ccccc3cn2)CCCCC1 | 0.0407 mg/mL (≈ 125 µM)
4 | COc1ccc(C(=O)COC(=O)/C=C/c2ccccc2[N+](=O)[O-])cc1 | 0.0102 mg/mL (≈ 29.9 µM)
5 | CC(C)(C)Nc1nc2ccc([N+](=O)[O-])cc2o1 | 0.0319 mg/mL (≈ 136 µM)
6 | CCOc1ncccc1C(=O)Nc1cc2c(cc1Br)OCCO2 | 0.0065 mg/mL (≈ 17.1 µM)
7 | Cc1ccc2ccc(S(=O)(=O)NCc3ccco3)cc2c1 | 0.037 mg/mL (≈ 123 µM)
8 | Cc1c(-c2ccc(Cl)cc2)[n+](=O)c2c(n1[O-])CCCC2 | > 0.0436 mg/mL
9 | CC(Cc1ccccc1)NC(=O)CC(c1ccccc1)c1ccccc1O (stereo not given) | 0.0108 mg/mL (≈ 30 µM)
10 | COc1ccc(CNc2ncccn2)cc1OC | > 0.0368 mg/mL
11 | O=c1cc(-c2ccc([N+](=O)[O-])cc2)c2cc3c(cc2[nH]1)OCCO3 | 0.0009 mg/mL (≈ 2.78 µM)
12 | Cc1ccc([N+](=O)[O-])cc1N | 0.0135 mg/mL (≈ 88.7 µM)
13 | Cc1noc(NS(=O)(=O)c2ccc(NS(=O)(=O)c3ccc(Cl)cc3)cc2)c1C | > 0.0663 mg/mL
14 | Cc1[nH]c(=O)[nH]c(=O)c1S(=O)(=O)Nc1ccc(F)c(Cl)c1 | > 0.0501 mg/mL
15 | Cc1noc(C)c1COC(=O)c1cc(S(=O)(=O)N2CCOCC2)ccc1Cl | 0.0424 mg/mL (≈ 102 µM)
16 | Cc1cc(=O)oc2c(CN3CCCC3)c(O)ccc12 | > 0.0389 mg/mL
17 | Cl.OCCNc1nc(N2CCCCC2)nc2ccccc12 | > 0.0463 mg/mL
18 | COc1ccc(CNC(=O)CSc2nc3ccc(OC)cc3[nH]2)cc1 | > 0.0536 mg/mL
19 | COc1ccccc1NC(=O)COC(=O)C1CC(=O)N(c2ccc3c(c2)OCCO3)C1 (stereo not given) | 0.0378 mg/mL (≈ 88.6 µM)
20 | CC(=O)c1ccccc1OCCOc1ncnc2sccc12 | > 0.0472 mg/mL
21 | CCn1c(=O)c(C(=O)Nc2ccc(C)cc2)c(O)c2ccccc21 | < 0.0003 mg/mL
22 | CCN(CC)CCN(C(=O)c1cc2ccccc2cc1OC)c1nc2ccc(OC)cc2s1.Cl | 0.0037 mg/mL

Row | Compound | solubility kinetic
23 | O=C(COC(=O)C1CC2C=CC1C2)Nc1ccccc1[N+](=O)[O-] (stereo not given) | 0.0294 mg/mL (≈ 92.9 µM)
24 | Cc1ccc(CN(C(=O)c2ccco2)C2CCS(=O)(=O)C2)cc1 (stereo not given) | > 0.05 mg/mL
25 | COc1cc(Cl)c(C)cc1NC(=O)CN(C)C1CCS(=O)(=O)C1 (stereo not given) | > 0.0541 mg/mL
26 | CC(=O)N/C(=C\c1ccccc1)C(=O)OCC(=O)NC1CCS(=O)(=O)C1 (stereo not given) | > 0.0571 mg/mL
27 | Cc1ccnc(NC(=O)CCC(=O)c2cc(C)sc2C)c1 | 0.0037 mg/mL (≈ 12.2 µM)
28 | O=C1CNC(=S)N1CCc1ccccc1Cl | > 0.0382 mg/mL
29 | O=C(O)c1ccccc1C(=O)NCC(O)c1ccccc1 (stereo not given) | > 0.0428 mg/mL
30 | CCO/C=C1\C(=O)N(c2ccc(OCC)cc2)C(=O)c2ccccc21 | > 0.0506 mg/mL
31 | N#Cc1ccccc1COc1cccc2c1CCCC2O (stereo not given) | 0.0021 mg/mL (≈ 7.52 µM)
32 | Cc1cc(SCC(=O)N(C)C2CCCCC2)nc2ccccc12 | 0.0194 mg/mL (≈ 59.1 µM)
33 | COc1ccccc1OCCNC(=O)CCNC(=O)c1ccccc1Cl | > 0.0565 mg/mL
34 | COc1ccc(NC(=O)CN2C(=O)NC3(CCCc4ccccc43)C2=O)c(OC)c1 (stereo not given) | > 0.0614 mg/mL
35 | CCc1c(C)sc(NC(=O)c2ccco2)c1C#N | 0.017 mg/mL (≈ 65.3 µM)
36 | Cc1[nH]c(=O)nc(SCc2cccc(Cl)c2)c1C#N | 0.0122 mg/mL (≈ 41.8 µM)
37 | CNC(=O)c1cccc(NC(=O)C(C)c2ccc3cc(OC)ccc3c2)c1 (stereo not given) | 0.0092 mg/mL (≈ 25.4 µM)
38 | Cc1ccnc(N2CCC(C(=O)NNC(=O)c3ccncc3)CC2)n1 | > 0.0511 mg/mL
39 | Cc1ccc(CSCC(=O)NCc2ccco2)cc1 | 0.0368 mg/mL (≈ 134 µM)
40 | O=C(Nc1ccc(Cl)cc1)c1csc(Cc2ccccc2)n1 | 0.0011 mg/mL (≈ 3.35 µM)
41 | CCOC(=O)c1sc2ncc([N+](=O)[O-])cc2c1N | 0.0038 mg/mL (≈ 14.2 µM)
42 | Fc1ccc(Nc2nc3ccccc3s2)cc1 | 0.0004 mg/mL (≈ 1.64 µM)
43 | COc1ccc(S(=O)(=O)N2CCCCC2)cc1NC(=O)CCNC(=O)c1ccc(Cl)cc1 | 0.0043 mg/mL (≈ 8.96 µM)
44 | CCNC(=O)C(=O)Nc1cc2c3c(c1)CCC(=O)N3CCC2 | > 0.0452 mg/mL

Row | Compound | solubility kinetic
45 | N#CCNc1ccc([N+](=O)[O-])cc1C#N | 0.0303 mg/mL (≈ 150 µM)
46 | CN(C)c1cccc(C(=O)NCc2ccccc2)c1 | > 0.0381 mg/mL
47 | O=C(NCC(=O)c1ccccc1)OCc1ccc([N+](=O)[O-])cc1 | 0.0025 mg/mL (≈ 7.95 µM)
48 | Cc1ccc(C)c(N2CC(C(=O)Nc3cc(C)on3)CC2=O)c1 (stereo not given) | 0.0403 mg/mL (≈ 129 µM)
49 | C/C(=C\c1ccc(Br)cc1)C(=O)c1c(C)cc(C)[nH]c1=O | > 0.0519 mg/mL
50 | O=C(O)c1ccc(N=Nc2c(-c3ccccc3)[nH]oc2=O)cc1 | > 0.0464 mg/mL
51 | C=CCn1cnc2scc(-c3ccc(OC)cc3)c2c1=O | 0.039 mg/mL (≈ 131 µM)
52 | COc1ccc(C(=O)Nc2ccc3[nH]ccc3c2)cc1 | > 0.0399 mg/mL
53 | CC1CCCCC1NCC(=O)Nc1ccccc1C(=O)Nc1ccccc1 (stereo not given) | 0.004 mg/mL (≈ 10.9 µM)
54 | CCOc1ccc(CN2CCC(Cc3ccccc3)CC2)cc1 | 0.0243 mg/mL (≈ 78.5 µM)
55 | COc1ccc(CCNCc2ccc(C)s2)cc1OC.Cl | > 0.0492 mg/mL
56 | NS(=O)(=O)c1ccc(Sc2ccc3c(c2)CCC3)nc1 | 0.0025 mg/mL (≈ 8.16 µM)
57 | CCOC(=O)Cn1cc(C#N)c2cccc(CC)c21 | 0.0353 mg/mL (≈ 138 µM)
58 | COc1ccc(OC)c(/C=C/c2[nH]c(=O)[nH]c(=O)c2[N+](=O)[O-])c1 | 0.0351 mg/mL (≈ 110 µM)
59 | COC(=O)CSC(=S)N1C(C)CCCC1C (stereo not given) | 0.0311 mg/mL (≈ 119 µM)
60 | OC(CNCc1ccc(Cl)cc1)C(F)(F)F (stereo not given) | > 0.038 mg/mL
61 | CCCc1cc(=O)[nH]c(SCC(=O)NCCN2C(=O)CSC2=O)n1 | > 0.0556 mg/mL
62 | C=CCC1Cc2c(Br)cccc2C(CC=C)N1 (stereo not given) | 0.0133 mg/mL (≈ 45.5 µM)
63 | O=C(O)c1nn2cc(CCO)cnc2c1Cl | > 0.0362 mg/mL
64 | CSc1nsc(SC)c1C(=O)Nc1ccc(C(C)(C)C)cc1 | < 0.0004 mg/mL
65 | CCOC(=O)c1cccc(NC(=O)c2ccccc2C)c1 | 0.0331 mg/mL (≈ 117 µM)
66 | CCOC(=O)c1nn(-c2ccc3c(c2)OCCO3)cc1O | > 0.0435 mg/mL

Row | Compound | solubility kinetic
67 | S=c1ccc2ccccc2[nH]1 | 0.0226 mg/mL (≈ 140 µM)
68 | CC(C)N1CCC(=NNC(=O)c2cccs2)CC1 | > 0.0398 mg/mL
69 | CCCCCC1CC(CC(=O)Nc2ccc([N+](=O)[O-])cc2)OC1=O (stereo not given) | 0.0005 mg/mL (≈ 1.5 µM)
70 | CN(Cc1cccnc1)C(=O)CNC(=O)COc1ccccc1 | > 0.047 mg/mL
71 | O=C1NC(=O)N(Cc2ccc(F)cc2)C(=O)/C1=C\C=C\c1ccco1 | 0.01 mg/mL (≈ 29.4 µM)
72 | CCOC(=O)C1CCCN(CCC(=O)Nc2ccccc2C)C1.Cl (stereo not given) | > 0.0532 mg/mL
73 | O=C(CCc1ccncc1)N1CCCC(Nc2ccc(F)c(F)c2)C1 (stereo not given) | 0.0439 mg/mL (≈ 127 µM)
74 | Fc1ccc(NC(=S)NCc2cccnc2)cc1 | > 0.0392 mg/mL
75 | COc1ccc(OC)c(/C=C/C(=O)OCC(=O)N2C(C)CCCC2C)c1 (stereo not given) | 0.0441 mg/mL (≈ 122 µM)
76 | NS(=O)(=O)c1ccc(CCNC(=O)c2ccc(-c3ccccc3)cc2)cc1 | < 0.0004 mg/mL
77 | Cc1sc2ncnc(N(C)C3CCCCC3)c2c1C | 0.0011 mg/mL (≈ 3.99 µM)
78 | COC(=O)c1c(C)[nH]c(C(=O)CN2C(=O)C3CC=CCC3C2=O)c1C (stereo not given) | > 0.0517 mg/mL
79 | Brc1cc(Br)c2nc3c(cc2c1)CCC3 | 0.0019 mg/mL (≈ 5.81 µM)
80 | Cc1ccc(NC(=O)N[C@@H](CC(C)C)C(=O)O)c(C)c1 | > 0.0418 mg/mL
81 | ClCc1cc2ccccc2nc1Cl | 0.0065 mg/mL (≈ 30.6 µM)
82 | CCOC(=O)N1CCN(C/C(Cl)=C/c2ccccc2)CC1 | 0.0298 mg/mL (≈ 96.5 µM)
83 | Cc1cc2ccccn2c1C(=O)c1ccc(S(=O)(=O)N(C)C)cc1 | 0.0011 mg/mL (≈ 3.21 µM)
84 | O=C(COc1ccccc1Cl)NCCCNC(=O)c1ccncc1 | 0.0447 mg/mL (≈ 129 µM)
85 | S=C(Nc1ccc2[nH]ccc2c1)NC1CCCCC1 | 0.037 mg/mL (≈ 135 µM)
